Measured values reported in ChEMBL document CHEMBL5370660, “Design of a Supersoft Topical JAK Inhibitor, Which Is Effective in Human Skin but Rapidly Deactivated in Blood” (J Med Chem, 2023).
Values after ≈ are worked out from the molar mass of the structure shown. Active and inactive are the calls of the source. The calls are words filed in the database; no cut-off is given here.

Experiments:
[1] = molecular target: Tyrosine-protein kinase JAK2 (Homo sapiens, UniProt O60674); assay: Inhibition of GST-fused JAK2 (808 to 1132 residues)(unknown origin) using Carboxyfluorescein-Ahx-GGEEEEYFELVKKKK peptide as substrate incubated for 30 mins in presence of ATP by caliper microfluidic mobility shift assay
Tyrosine-protein kinase JAK2, sequence (O60674 whole entry, the tested form may be a part): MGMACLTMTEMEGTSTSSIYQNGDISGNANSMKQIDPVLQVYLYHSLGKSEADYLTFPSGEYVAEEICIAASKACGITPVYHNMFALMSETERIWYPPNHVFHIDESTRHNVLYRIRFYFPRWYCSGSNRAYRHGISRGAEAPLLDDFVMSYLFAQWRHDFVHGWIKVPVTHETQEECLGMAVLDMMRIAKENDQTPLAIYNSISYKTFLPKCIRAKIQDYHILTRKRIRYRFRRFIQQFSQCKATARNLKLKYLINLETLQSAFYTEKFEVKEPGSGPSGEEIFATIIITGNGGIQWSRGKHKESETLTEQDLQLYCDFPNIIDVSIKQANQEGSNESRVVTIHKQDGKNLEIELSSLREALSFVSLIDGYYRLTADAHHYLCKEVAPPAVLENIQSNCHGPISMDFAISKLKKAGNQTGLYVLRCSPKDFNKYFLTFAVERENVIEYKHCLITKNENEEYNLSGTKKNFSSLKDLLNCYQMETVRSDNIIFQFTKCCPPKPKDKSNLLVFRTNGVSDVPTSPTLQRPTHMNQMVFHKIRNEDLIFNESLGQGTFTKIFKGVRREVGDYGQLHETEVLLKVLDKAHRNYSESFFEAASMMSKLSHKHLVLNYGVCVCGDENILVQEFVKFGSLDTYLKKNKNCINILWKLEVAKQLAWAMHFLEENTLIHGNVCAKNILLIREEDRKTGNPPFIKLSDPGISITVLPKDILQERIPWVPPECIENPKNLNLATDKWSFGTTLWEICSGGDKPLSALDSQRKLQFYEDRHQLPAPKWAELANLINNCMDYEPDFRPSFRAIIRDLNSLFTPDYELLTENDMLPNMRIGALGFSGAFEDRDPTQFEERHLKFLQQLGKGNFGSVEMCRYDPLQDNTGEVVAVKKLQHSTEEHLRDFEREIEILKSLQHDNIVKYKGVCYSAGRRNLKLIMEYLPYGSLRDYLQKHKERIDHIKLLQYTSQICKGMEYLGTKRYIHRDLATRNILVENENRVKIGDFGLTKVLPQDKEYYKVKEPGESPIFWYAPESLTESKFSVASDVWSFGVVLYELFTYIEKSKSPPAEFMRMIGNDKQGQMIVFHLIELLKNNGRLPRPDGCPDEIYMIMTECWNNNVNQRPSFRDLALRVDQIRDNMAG

[2] = Stability in human whole blood assessed as half life at 1 uM incubated upto 8 hrs by LC-MS/MS analysis; assay type: ADME, tissue-based
[3] = Half life in human blood; assay type: ADME, tissue-based
[4] = molecular target: JAK2/JAK1 (Homo sapiens, UniProt O60674+P23458); assay: Inhibition of JAK1/2-mediated STAT1 phosphorylation in human M07E cells preincubated for 30 mins followed by IFN-alpha stimulation measured after 15 mins by flow cytometry; assay type: cell-based
JAK2/JAK1, sequence (P23458 whole entry): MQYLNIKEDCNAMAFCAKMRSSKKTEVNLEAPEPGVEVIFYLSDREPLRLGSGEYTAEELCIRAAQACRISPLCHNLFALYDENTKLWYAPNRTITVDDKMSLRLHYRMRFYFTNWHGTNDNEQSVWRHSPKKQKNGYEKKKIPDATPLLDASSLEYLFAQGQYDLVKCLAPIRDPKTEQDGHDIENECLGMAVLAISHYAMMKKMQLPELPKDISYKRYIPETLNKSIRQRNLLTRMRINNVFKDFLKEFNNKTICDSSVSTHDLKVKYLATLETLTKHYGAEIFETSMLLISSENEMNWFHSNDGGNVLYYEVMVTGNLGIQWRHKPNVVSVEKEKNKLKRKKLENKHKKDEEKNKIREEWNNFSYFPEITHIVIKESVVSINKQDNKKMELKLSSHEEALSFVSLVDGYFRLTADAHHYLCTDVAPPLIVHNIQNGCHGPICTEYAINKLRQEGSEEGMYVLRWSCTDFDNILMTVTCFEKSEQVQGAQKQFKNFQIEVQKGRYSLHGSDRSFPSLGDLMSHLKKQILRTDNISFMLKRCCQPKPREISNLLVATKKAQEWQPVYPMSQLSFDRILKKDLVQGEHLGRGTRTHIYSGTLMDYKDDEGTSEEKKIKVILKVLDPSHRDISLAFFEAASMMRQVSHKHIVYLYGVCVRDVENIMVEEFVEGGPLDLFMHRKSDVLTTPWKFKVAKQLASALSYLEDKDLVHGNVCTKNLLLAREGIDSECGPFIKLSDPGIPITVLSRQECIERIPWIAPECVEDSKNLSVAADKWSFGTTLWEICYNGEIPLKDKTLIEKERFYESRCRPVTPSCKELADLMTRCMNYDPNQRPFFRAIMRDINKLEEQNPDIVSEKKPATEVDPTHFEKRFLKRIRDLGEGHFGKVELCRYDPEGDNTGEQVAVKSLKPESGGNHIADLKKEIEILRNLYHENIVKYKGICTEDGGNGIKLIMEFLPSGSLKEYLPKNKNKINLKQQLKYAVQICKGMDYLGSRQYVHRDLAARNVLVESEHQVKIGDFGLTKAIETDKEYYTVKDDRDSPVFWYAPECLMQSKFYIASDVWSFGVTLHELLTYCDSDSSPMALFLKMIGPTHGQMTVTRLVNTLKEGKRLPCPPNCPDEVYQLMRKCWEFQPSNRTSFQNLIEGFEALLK
JAK2/JAK1, sequence (O60674 whole entry): as the sequence (O60674 whole entry, the tested form may be a part) above

[5] = Metabolic stability in human skin S9 fraction measured upto 120 mins by LC-MS analysis; assay type: ADME, subcellular
[6] = Saturation solubility of compound in PEG400/transcutol/benzyl alcohol/water mixture using crystalline form of sample; assay type: physicochemical
[7] = test system: Homo sapiens; assay: Inhibition of Eotaxin-3 gene expression in IL-4/IL-13-stimulated fresh human skin explant using Franz diffusion cell model at 0.5 % administered topically preincubated overnight followed by fresh media replacement in receiver fluid without compound and subsequently stimulated with IL-4/IL-13 measured after 24 hrs by RT-qPCR analysis; assay type: functional, tissue-based; details: Skin of body
[8] = Thermodynamic solubility of the compound at pH 6.8 using crystalline form of sample; assay type: physicochemical; details: read-out: Therm_solubility
[9] = Permeability of compound; assay type: ADME; details: not told; read-out: permeability
[10] = Stability of compound in fresh human skin explant using Franz diffusion cell model assessed as compound concentration in dermis at 0.5 % administered topically preincubated overnight followed by fresh media replacement in receiver fluid without compound and subsequently stimulated with IL-4/IL-13 measured after 40 hrs by LC-MS/MS analysis; assay type: ADME, tissue-based, Skin of body; details: topical or ocular, read-out: Ct
[11] = test system: Homo sapiens; assay: Downregulation of GSVA score in human abdominal skin model at 0.2 % administered topically as cream treated for 24 hrs followed by removal of cream and stratum corneum and subsequently stimulated with IL-4/IL-13 measured after 3 hrs; assay type: functional, tissue-based; details: Abdomen skin, route top, time 27.0 hrs
[12] = molecular target: T1, C-C motif chemokine 17 (Homo sapiens, UniProt Q92583); assay: Inhibition of TARC in human skin immersion culture at 10 uM preincubated for 3 hrs followed by IL-4/IL-13 stimulation measured after 18 hrs by MSD assay relative to control; assay type: tissue-based, Skin of body; details: time 21 hrs
T1 sequence (Q92583 whole entry): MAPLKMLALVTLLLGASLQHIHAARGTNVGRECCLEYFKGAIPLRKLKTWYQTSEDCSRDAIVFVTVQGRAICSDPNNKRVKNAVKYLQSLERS

[13] = test system: Homo sapiens; assay: Inhibition of MMP12 gene expression in IL-4/IL-13-stimulated fresh human skin explant using Franz diffusion cell model at 0.5 % administered topically preincubated overnight followed by fresh media replacement in receiver fluid without compound and subsequently stimulated with IL-4/IL-13 measured after 24 hrs by RT-qPCR analysis; assay type: functional, tissue-based; details: Skin of body
[14] = Drug penetration in fresh human skin explant using Franz diffusion cell model assessed as compound concentration in receiver fluid at 0.5 % administered topically preincubated overnight followed by fresh media replacement in receiver fluid without compound and subsequently stimulated with IL-4/IL-13 measured after 24 hrs by LC-MS/MS analysis; assay type: ADME, tissue-based, Skin of body
[15] = Lipophilicity, LogD of compound; assay type: physicochemical; details: octanol/water
[16] = test system: Homo sapiens; assay: Inhibition of TARC gene expression in IL-4/IL-13-stimulated fresh human skin explant using Franz diffusion cell model at 0.5 % administered topically preincubated overnight followed by fresh media replacement in receiver fluid without compound and subsequently stimulated with IL-4/IL-13 measured after 24 hrs by RT-qPCR analysis; assay type: functional, tissue-based; details: Skin of body
[17] = molecular target: T2, Tyrosine-protein kinase JAK3 (Homo sapiens, UniProt P52333); assay: Inhibition of GST-fused JAK3 (811 to 1124 residues)(unknown origin) using Carboxyfluorescein-Ahx-GGEEEEYFELVKKKK peptide as substrate incubated for 30 mins in presence of ATP by caliper microfluidic mobility shift assay
T2 sequence (P52333 whole entry): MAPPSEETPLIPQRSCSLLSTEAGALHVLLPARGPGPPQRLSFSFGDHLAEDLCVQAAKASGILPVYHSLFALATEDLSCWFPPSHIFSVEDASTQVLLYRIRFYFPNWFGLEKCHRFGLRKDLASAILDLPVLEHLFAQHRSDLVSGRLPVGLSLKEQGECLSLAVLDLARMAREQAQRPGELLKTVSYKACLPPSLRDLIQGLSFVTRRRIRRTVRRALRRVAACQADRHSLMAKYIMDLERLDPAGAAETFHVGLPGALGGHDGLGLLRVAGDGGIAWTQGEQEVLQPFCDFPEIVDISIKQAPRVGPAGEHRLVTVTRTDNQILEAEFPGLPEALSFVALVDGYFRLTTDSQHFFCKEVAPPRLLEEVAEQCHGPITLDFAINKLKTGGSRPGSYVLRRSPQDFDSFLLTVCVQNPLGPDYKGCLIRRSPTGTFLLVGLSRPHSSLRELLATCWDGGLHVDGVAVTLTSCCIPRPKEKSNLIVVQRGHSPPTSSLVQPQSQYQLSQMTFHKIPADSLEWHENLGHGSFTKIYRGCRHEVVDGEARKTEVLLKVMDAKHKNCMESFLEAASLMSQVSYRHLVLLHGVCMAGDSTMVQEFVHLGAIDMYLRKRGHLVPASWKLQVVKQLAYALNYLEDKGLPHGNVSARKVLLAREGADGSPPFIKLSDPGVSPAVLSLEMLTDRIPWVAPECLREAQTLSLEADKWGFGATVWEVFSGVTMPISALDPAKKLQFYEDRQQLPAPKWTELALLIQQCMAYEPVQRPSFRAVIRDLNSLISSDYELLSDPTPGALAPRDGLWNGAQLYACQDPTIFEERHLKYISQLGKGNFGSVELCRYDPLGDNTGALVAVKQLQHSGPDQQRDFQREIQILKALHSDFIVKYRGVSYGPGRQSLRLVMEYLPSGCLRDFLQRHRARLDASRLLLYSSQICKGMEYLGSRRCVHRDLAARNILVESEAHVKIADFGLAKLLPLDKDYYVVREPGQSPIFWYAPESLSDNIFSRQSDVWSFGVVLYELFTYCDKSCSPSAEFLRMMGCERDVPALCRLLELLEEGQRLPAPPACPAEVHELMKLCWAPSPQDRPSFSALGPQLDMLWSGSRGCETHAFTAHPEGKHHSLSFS

[18] = Saturation solubility of compound in PEG400/transcutol/benzyl alcohol/water mixture using amorphous form of sample; assay type: physicochemical
[19] = molecular target: Tyrosine-protein kinase JAK1 (Homo sapiens, UniProt P23458); assay: Inhibition of GST-fused JAK1 (866 to 1154 residues)(unknown origin) using FITC-Ahr-KKSRGDYMTMQIG-NH2 peptide as substrate incubated for 30 mins in presence of ATP by caliper microfluidic mobility shift assay
Tyrosine-protein kinase JAK1, sequence (P23458 whole entry, the tested form may be a part): as the sequence (P23458 whole entry) above

[20] = molecular target: T3, JAK3/JAK1 (Homo sapiens, UniProt P23458+P52333); assay: Inhibition of JAK1/3-mediated STAT5 phosphorylation in human M07E cells preincubated for 30 mins followed by IL-15 stimulation measured after 15 mins by flow cytometry; assay type: cell-based
T3 sequence (P23458 whole entry, one chain of several): as the sequence (P23458 whole entry) above

[21] = Stability of compound under temperature stress assessed as compound degradation at 50 degreeC measured after 7 days using amorphous form of sample; assay type: physicochemical; details: time 7 day; read-out: Drug degradation
[22] = molecular target: T3, JAK3/JAK1; assay: Inhibition of JAK1/3-mediated STAT5 phosphorylation in human whole blood incubated for 30 mins followed by IL-2 addition measured after 15 mins by flow cytometry; assay type: tissue-based
[23] = Stability of compound under light stress assessed as compound decomposition under sunlight with intensity of 4000 KJ/m2, irradiation of 250 W/m2, wavelength of >290 nm, temperature of 37 degreeC for 4 hrs using amorphous form of sample; assay type: ADME; details: read-out: Drug degradation
[24] = Solubility of the compound at pH 6.8 using amorphous form of sample; assay type: physicochemical; details: buffer
[25] = molecular target: Non-receptor tyrosine-protein kinase TYK2 (Homo sapiens, UniProt P29597); assay: Inhibition of GST-fused TYK2 (888 to 1187 residues)(unknown origin) using FITC-Ahr-KKSRGDYMTMQIG-NH2 peptide as substrate incubated for 30 mins in presence of ATP by caliper microfluidic mobility shift assay
Non-receptor tyrosine-protein kinase TYK2, sequence (P29597 whole entry, the tested form may be a part): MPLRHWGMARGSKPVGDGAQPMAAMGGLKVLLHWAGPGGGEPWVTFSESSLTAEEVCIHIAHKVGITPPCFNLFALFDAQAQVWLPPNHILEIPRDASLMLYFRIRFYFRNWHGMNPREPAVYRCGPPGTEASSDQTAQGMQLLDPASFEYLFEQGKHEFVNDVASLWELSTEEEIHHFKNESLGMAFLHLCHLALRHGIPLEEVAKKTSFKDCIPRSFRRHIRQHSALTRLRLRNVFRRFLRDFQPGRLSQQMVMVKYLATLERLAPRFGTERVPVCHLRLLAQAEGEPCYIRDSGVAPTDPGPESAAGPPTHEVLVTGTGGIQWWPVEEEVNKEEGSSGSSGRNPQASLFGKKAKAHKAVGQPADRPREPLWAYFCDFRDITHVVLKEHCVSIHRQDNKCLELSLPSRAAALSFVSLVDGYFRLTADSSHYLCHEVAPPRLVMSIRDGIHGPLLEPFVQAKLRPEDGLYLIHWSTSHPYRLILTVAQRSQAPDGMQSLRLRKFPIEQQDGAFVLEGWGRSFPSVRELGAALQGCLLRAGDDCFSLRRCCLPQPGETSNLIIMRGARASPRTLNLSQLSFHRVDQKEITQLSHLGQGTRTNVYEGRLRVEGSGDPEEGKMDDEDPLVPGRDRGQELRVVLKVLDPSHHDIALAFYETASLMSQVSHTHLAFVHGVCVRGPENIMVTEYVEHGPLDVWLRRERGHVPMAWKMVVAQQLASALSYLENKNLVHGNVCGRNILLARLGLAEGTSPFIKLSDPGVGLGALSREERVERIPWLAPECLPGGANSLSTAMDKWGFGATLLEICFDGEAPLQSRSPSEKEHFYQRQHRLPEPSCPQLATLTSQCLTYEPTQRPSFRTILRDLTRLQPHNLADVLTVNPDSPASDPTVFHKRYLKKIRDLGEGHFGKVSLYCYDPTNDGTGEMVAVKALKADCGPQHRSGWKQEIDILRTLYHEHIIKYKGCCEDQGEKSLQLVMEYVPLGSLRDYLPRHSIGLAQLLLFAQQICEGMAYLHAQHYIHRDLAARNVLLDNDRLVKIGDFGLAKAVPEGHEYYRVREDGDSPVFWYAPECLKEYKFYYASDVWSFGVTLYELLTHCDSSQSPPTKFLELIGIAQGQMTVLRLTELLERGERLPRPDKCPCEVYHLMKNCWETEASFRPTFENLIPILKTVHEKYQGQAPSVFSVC

[26] = molecular target: T4, Mitogen-activated protein kinase kinase kinase 2 (Homo sapiens, UniProt Q9Y2U5); assay: Inhibition of MAP3K2 (unknown origin)
T4 sequence (Q9Y2U5 whole entry): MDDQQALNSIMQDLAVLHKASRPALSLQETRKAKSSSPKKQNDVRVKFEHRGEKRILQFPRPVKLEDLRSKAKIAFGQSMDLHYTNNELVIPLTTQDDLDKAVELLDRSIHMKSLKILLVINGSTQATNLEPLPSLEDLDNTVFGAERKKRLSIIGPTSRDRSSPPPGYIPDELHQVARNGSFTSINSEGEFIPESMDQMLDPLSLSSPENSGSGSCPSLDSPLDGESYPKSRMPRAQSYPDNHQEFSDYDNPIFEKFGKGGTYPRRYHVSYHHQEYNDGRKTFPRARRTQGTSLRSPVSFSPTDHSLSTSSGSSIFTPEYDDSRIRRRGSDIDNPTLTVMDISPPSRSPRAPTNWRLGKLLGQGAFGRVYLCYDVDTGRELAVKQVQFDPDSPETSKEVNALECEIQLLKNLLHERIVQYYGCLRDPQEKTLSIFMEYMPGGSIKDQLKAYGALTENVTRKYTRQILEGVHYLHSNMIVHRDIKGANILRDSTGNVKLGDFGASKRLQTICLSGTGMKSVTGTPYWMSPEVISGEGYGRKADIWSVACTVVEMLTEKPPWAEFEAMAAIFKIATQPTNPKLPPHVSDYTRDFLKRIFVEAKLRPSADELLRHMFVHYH

[27] = molecular target: T5, Eukaryotic translation initiation factor 2-alpha kinase 3 (Homo sapiens, UniProt Q9NZJ5); assay: Inhibition of EIF2AK3 (unknown origin)
T5 sequence (Q9NZJ5 whole entry): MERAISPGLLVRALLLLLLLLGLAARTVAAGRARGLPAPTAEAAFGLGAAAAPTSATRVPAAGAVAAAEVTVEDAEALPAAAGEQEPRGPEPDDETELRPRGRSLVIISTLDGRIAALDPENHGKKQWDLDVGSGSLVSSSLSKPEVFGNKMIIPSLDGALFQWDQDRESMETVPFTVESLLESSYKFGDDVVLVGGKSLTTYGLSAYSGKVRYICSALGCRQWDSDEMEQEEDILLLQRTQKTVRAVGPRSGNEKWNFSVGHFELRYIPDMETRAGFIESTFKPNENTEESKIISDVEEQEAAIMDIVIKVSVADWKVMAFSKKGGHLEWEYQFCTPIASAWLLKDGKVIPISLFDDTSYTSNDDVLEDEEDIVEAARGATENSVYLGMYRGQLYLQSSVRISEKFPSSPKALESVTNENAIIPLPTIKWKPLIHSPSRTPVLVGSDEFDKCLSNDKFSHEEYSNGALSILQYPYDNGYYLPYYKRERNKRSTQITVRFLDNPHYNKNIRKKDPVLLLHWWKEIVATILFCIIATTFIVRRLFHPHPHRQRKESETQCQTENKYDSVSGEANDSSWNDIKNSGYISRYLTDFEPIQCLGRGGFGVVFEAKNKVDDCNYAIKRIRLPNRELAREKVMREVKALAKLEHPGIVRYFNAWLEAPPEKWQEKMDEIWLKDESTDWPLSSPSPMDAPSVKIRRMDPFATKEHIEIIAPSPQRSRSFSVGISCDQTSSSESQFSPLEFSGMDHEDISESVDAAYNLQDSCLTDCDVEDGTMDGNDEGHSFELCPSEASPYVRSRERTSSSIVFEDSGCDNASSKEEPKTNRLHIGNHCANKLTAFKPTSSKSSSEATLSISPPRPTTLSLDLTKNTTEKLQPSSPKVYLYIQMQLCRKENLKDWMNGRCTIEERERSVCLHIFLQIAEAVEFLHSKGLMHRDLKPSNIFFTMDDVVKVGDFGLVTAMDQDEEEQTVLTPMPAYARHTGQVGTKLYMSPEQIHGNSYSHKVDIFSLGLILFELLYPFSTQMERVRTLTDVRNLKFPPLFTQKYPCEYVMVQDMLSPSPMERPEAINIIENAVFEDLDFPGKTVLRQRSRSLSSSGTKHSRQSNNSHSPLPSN

| SMILES | IC50 [1] | half-life at 1 µM [2] | IC50 [4] | half-life [5] | Papp [9] | logD [15] | IC50 [17] | IC50 [19] | IC50 [20] | IC50 [22] | further results |
| --- | --- | --- | --- | --- | --- | --- | --- | --- | --- | --- | --- |
| CCOC(=O)Oc1cccc(Nc2cc(Nc3ccccc3Cl)c(C(N)=O)cn2)n1 | 5.22 µM | 4 min | 0.071 µM | 7 min | – | – | – | – | – | – | half-life [3]: ~4 min |
| Cc1cccc(Nc2cc(Nc3ccccc3Cl)c(C(N)=O)cn2)n1 | – | > 240 min | 0.085 µM | > 240 min | 67 nm/s | 4.4 | – | – | – | – | solubility thermodynamic [6]: 2.8 mg/mL (≈ 7.91 mM); inhibition [7]: Active; solubility thermodynamic [8]: 0.0001 mg/mL (≈ 0.000283 mM); concentration at 40 h, 0.5 % [10]: 33 µM; Activity [11]: Active; inhibition at 10 µM [12]: 100%; inhibition [13]: Active; Drug uptake [14]: 0.004 µM; inhibition [16]: Active |
| COC(=O)Cc1ccc(Nc2cc(Nc3ccccc3Cl)c(C(N)=O)cn2)nc1 | 0.01 µM | 5 min | 0.037 µM | 12 min | – | 3.8 | 0.013 µM | 0.009 µM | 0.027 µM | 7.85 µM | solubility thermodynamic [18]: 5.4 mg/mL (≈ 13.1 mM); degraded at 168 h [21]: 11%; degraded at 4 h [23]: 7%; solubility [24]: 0.003 mg/mL (≈ 0.00728 mM) |
| COc1ccccc1Nc1cc(Nc2ccc(CC(=O)O)cn2)ncc1C(N)=O | 0.011 µM | > 240 min | > 10 µM | < 240 min | 5 nm/s | 0.25 | 0.01 µM | 0.005 µM | 7.02 µM | > 40 µM | IC50 [25]: 0.007 µM; IC50 [26]: < 0.1 µM; IC50 [27]: < 0.1 µM |
